From patent publication US4918056A, “2-substituted arabinopyranosyl nucleosides and nucleotides” (priority 1986, dated 1990)

Key:
L1210/5-FU leukemia = assay: Therapeutic activity in DBA/2N mice with 5-FU resistant L1210 leukemia; assay type: in vivo, mouse (DBA/2N female); conditions: for Median survival: control 9; for Mean ± SD survival: control 9.25 ± 0.2
Method: (§1) In conducting the evaluations, the activity was tested against intraperitoneal (i.p.) implanted leukemia in mice.
(§2) DBA/2N female mice (20 g) were implanted i.p. with 1×10^6 L1210 leukemia cells on day 0. Mice were weighed and inspected for tumor growth and survival daily. […] Dosages varied from 1 to 800 mg/kg/day (mkd).
(§3) Survival time was measured in days after tumor implantation. % ILS (increase in life span) was based on mean survival.
(§4) Testing was followed as described in the NCI protocol and evaluation by comparison of median survival time (ST) of the treated animals to that of the control animals by the percentage increase in % ILS.
(§5) Drug resistant L1210 leukemia cell sublines were obtained from the National Cancer Institute. […] Eight mice were used as controls and five mice for each drug dosage group. Drugs were administered i.p. once per day on days 1, 2, 3, 4 and 5.

Lewis lung carcinoma = assay: Therapeutic activity in C57/B16 mice with s.c. Lewis lung carcinoma; assay type: in vivo, mouse (C57/B16 female); conditions: for % ILS (increase in life span): based on median survival; for Median survival: control 22
Method: (§6) The therapeutic activity of 85024 was evaluated in C57/B16 female mice implanted s.c. with either Lewis lung carcinoma or M5076 sarcoma (Table 5).
(§7) C57/B16 female mice were implanted s.c. using a trochar on day 0 with a 50 mg piece of either Lewis lung carcinoma of M5076 sarcoma. Drugs were administered i.p. once daily on days 3, 4, 5, 6 and 7. Tumor size (two perpendicular diameters) was measured with calipers and volume was estimated algebraically. Survival was monitored daily for 60 days. % ILS (increase in life span) is based on median survival.

M5076 sarcoma = assay: Therapeutic activity in C57/B16 mice with s.c. M5076 sarcoma; assay type: in vivo, mouse (C57/B16 female); conditions: days 3-7; for % ILS (increase in life span): based on median survival; for Half Maximal Tumor Volume: control 32; for Median survival: control 37
Method: as §6, §7

L1210 leukemia cells = assay: L1210 leukemia cell growth inhibition (48 hr, Coulter counter); assay type: cell-based, mouse; conditions: Mus musculus, L1210, RPMI 1640, 10% fetal calf serum
Method: Compounds 85024, 85023, 85058, 85027 and 85060 having a glycosidic linkage between the 2'carbon of the arabinose (in pyranose configuration) and base were evaluated for their growth inhibitory action on L1210 leukemia cells maintained in RPMI 1640 medium supplemented with 10% fetal calf serum and 16 mM HEPES, pH 7.2. Cellular growth inhibition was determined by incubating […] for 48 hr in 2 ml of media containing varying concentrations of drugs. Cell growth inhibition (50% growth inhibitory concentration, IC50) was determined after counting cells with a Coulter counter (Bernacki et al., Cancer Res. 45, 695, 1985). Drug concentrations which inhibited cell growth by 50% (IC50) are listed for each compound in Table 1.

L1210/ara-C leukemia = assay: Therapeutic activity in DBA/2N mice with ara-C resistant L1210 leukemia; conditions: for Median survival: control 7; for Mean ± SD survival: control 7.1 + 0.1
Method: as §1, §2, §3, §4, §5

L1210/0 leukemia = assay: Therapeutic activity against i.p. inoculated L1210/0 leukemic mice; assay type: in vivo, mouse (DBA/2N female); conditions: for Mean ± SD survival: control 6.7 ± 0.1; for Median survival: control 7
Method: The control group consisted of 20 mice injected with a 0.2 ml suspension of 0.5% Tween 80 in saline.

COC1OC[C@@H](OC(C)=O)[C@@H](OC(C)=O)[C@]1(F)n1ccc(=O)[nH]c1=O (stereo partly drawn) [compound 85024, Methyl 3,4-di-0-acetyl-2-deoxy-2(R)-[1H,3H-2,4-dioxo-1-pyrimidinyl]-2-fluoro-α-D-arabinopyranoside [5a] and methyl 3,4-di-0-acetyl-2-deoxy-2(R)-[1H,3H-2,4-dioxo-1-pyrimidinyl]-2-fluoro-β-D-arabinopyranoside [6a]]
Mean Animal Weight (L1210/5-FU leukemia; 100 mkd × 5 i.p.): 20.6 g | Survival Range (L1210/5-FU leukemia; 100 mkd × 5 i.p.): 9 to 12 days | % ILS (increase in life span) (L1210/5-FU leukemia; 100 mkd × 5 i.p., P <.05): 22% | Median survival (L1210/5-FU leukemia; 100 mkd × 5 i.p.): 11 days | Mean ± SD survival (L1210/5-FU leukemia; 100 mkd × 5 i.p.): 10.6 ± .5 days | Mean Animal Weight (L1210/5-FU leukemia; 200 mkd × 5 i.p.): 20.2 g | Survival Range (L1210/5-FU leukemia; 200 mkd × 5 i.p.): 9 to 11 days | % ILS (increase in life span) (L1210/5-FU leukemia; 200 mkd × 5 i.p., P 0.1): 11% | Median survival (L1210/5-FU leukemia; 200 mkd × 5 i.p.): 10 days | Mean ± SD survival (L1210/5-FU leukemia; 200 mkd × 5 i.p.): 10 ± 0.4 days | % ILS (increase in life span) (L1210/5-FU leukemia; 500 mkd × 5 i.p.): -34% | Mean Animal Weight (L1210/5-FU leukemia; 500 mkd × 5 i.p.): 15.9 g | Survival Range (L1210/5-FU leukemia; 500 mkd × 5 i.p.): 6 to 7 days | Median survival (L1210/5-FU leukemia; 500 mkd × 5 i.p.): 6 days | Mean ± SD survival (L1210/5-FU leukemia; 500 mkd × 5 i.p.): 6.4 ± 0.2 days | effect on tumor size (Lewis lung carcinoma; 400 mg/kg/day i.p., days 3-7): statistically significant decrease in tumor size | increase of median day to reach half maximal tumor size (Lewis lung carcinoma; 400 mg/kg/day i.p., days 3-7, normalized for animal weight, from day 19 to 23): 4 days | Survival Range (Lewis lung carcinoma; 50 mkd × 5 i.p., days 3-7): 24 to 31 days | % ILS (increase in life span) (Lewis lung carcinoma; 50 mkd × 5 i.p., days 3-7): 22% | Half Maximal Tumor Volume (Lewis lung carcinoma; 50 mkd × 5 i.p., days 3-7, control 19, p < 0.05): 20.5 days | Median survival (Lewis lung carcinoma; 50 mkd × 5 i.p., days 3-7): 27 days | Survival Range (Lewis lung carcinoma; 200 mkd × 5 i.p., days 3-7): 17 to 32 days | % ILS (increase in life span) (Lewis lung carcinoma; 200 mkd × 5 i.p., days 3-7): 40% | Half Maximal Tumor Volume (Lewis lung carcinoma; 200 mkd × 5 i.p., days 3-7, control 19): 21 days | Median survival (Lewis lung carcinoma; 200 mkd × 5 i.p., days 3-7): 31 days | Survival Range (Lewis lung carcinoma; 400 mkd × 5 i.p., days 3-7): 21 to 31 days | % ILS (increase in life span) (Lewis lung carcinoma; 400 mkd × 5 i.p., days 3-7, p < 0.05): 40% | Half Maximal Tumor Volume (median day to reach half maximal tumor size) (Lewis lung carcinoma; 400 mkd × 5 i.p., days 3-7, control 19, p < 0.05): 23 days | Median survival (Lewis lung carcinoma; 400 mkd × 5 i.p., days 3-7): 31 days | effect on lifespan and tumor size (Lewis lung carcinoma; s.c. solid tumors (Lewis lung carcinoma or M5076 sarcoma)): increased their lifespan and significantly decreased tumor size | effect on tumor size (M5076 sarcoma; 400 mg/kg/day i.p.): statistically significant decrease in tumor size | % ILS (increase in life span) (M5076 sarcoma; 50 mkd × 5 i.p.): 0% | Half Maximal Tumor Volume (M5076 sarcoma; 50 mkd × 5 i.p., p < 0.05): 35 days | Median survival (M5076 sarcoma; 50 mkd × 5 i.p.): 36 days | Survival Range (M5076 sarcoma; 50 mkd × 5 i.p., one animal survived for 60 days but bore a large, frank tumor): 34 to 60 days | Survival Range (M5076 sarcoma; 200 mkd × 5 i.p.): 36 to 42 days | % ILS (increase in life span) (M5076 sarcoma; 200 mkd × 5 i.p.): 0% | Half Maximal Tumor Volume (M5076 sarcoma; 200 mkd × 5 i.p.): 35 days | Median survival (M5076 sarcoma; 200 mkd × 5 i.p.): 37 days | Survival Range (M5076 sarcoma; 400 mkd × 5 i.p.): 33 to 47 days | % ILS (increase in life span) (M5076 sarcoma; 400 mkd × 5 i.p.): 14% | Half Maximal Tumor Volume (M5076 sarcoma; 400 mkd × 5 i.p., p < 0.05): 38 days | Median survival (M5076 sarcoma; 400 mkd × 5 i.p.): 42 days | IC50 (L1210 leukemia cells): 55 µM | Mean Animal Weight (L1210/ara-C leukemia; 100 mkd × 5 i.p.): 20.7 g | Survival Range (L1210/ara-C leukemia; 100 mkd × 5 i.p.): 8 to 9 days | % ILS (increase in life span) (L1210/ara-C leukemia; 100 mkd × 5 i.p., NS): 28% | Median survival (L1210/ara-C leukemia; 100 mkd × 5 i.p.): 9 days | Mean ± SD survival (L1210/ara-C leukemia; 100 mkd × 5 i.p.): 8.6 ± 0.2 days | Mean Animal Weight (L1210/ara-C leukemia; 200 mkd × 5 i.p.): 21.0 g | Survival Range (L1210/ara-C leukemia; 200 mkd × 5 i.p.): 8 to 9 days | % ILS (increase in life span) (L1210/ara-C leukemia; 200 mkd × 5 i.p., P <.01): 28% | Median survival (L1210/ara-C leukemia; 200 mkd × 5 i.p.): 9 days | Mean ± SD survival (L1210/ara-C leukemia; 200 mkd × 5 i.p.): 8.8 ± 0.2 days | Mean Animal Weight (L1210/ara-C leukemia; 500 mkd × 5 i.p.): 18.6 g | Survival Range (L1210/ara-C leukemia; 500 mkd × 5 i.p.): 10 to 11 days | % ILS (increase in life span) (L1210/ara-C leukemia; 500 mkd × 5 i.p., P <.01): 57% | Median survival (L1210/ara-C leukemia; 500 mkd × 5 i.p.): 11 days | Mean ± SD survival (L1210/ara-C leukemia; 500 mkd × 5 i.p.): 10.8 ± 0.2 days | cross resistance to ara-C and 5-FU (L1210/ara-C leukemia; summary of L1210/ara-C and L1210/5-FU tests): not cross resistant | Mean Animal Weight (on the day of death) (L1210/0 leukemia; 50 mkd × 5 i.p.): 23.4 g | Survival Range (L1210/0 leukemia; 50 mkd × 5 i.p.): 7 to 8 days | % ILS (increase in life span) (L1210/0 leukemia; 50 mkd × 5 i.p., N.S.): 7% | Mean ± SD survival (L1210/0 leukemia; 50 mkd × 5 i.p.): 7.2 ± 0.2 days | Median survival (L1210/0 leukemia; 50 mkd × 5 i.p.): 7 days | Mean Animal Weight (on the day of death) (L1210/0 leukemia; 100 mkd × 5 i.p.): 24.0 g | Survival Range (L1210/0 leukemia; 100 mkd × 5 i.p.): 8-8 days | % ILS (increase in life span) (L1210/0 leukemia; 100 mkd × 5 i.p., N.S.): 19% | Mean ± SD survival (L1210/0 leukemia; 100 mkd × 5 i.p.): 8.0 ± 0 days | Median survival (L1210/0 leukemia; 100 mkd × 5 i.p.): 8 days | Mean Animal Weight (on the day of death) (L1210/0 leukemia; 200 mkd × 5 i.p.): 22.0 g | Survival Range (L1210/0 leukemia; 200 mkd × 5 i.p.): 8 to 10 days | Mean ± SD survival (L1210/0 leukemia; 200 mkd × 5 i.p.): 8.8 ± 0.2 days | Median survival (L1210/0 leukemia; 200 mkd × 5 i.p.): 9 days | % ILS (increase in life span) (L1210/0 leukemia; 200 mkd × 5 i.p., p < 0.01): 31% | Mean Animal Weight (on the day of death) (L1210/0 leukemia; 400 mkd × 5 i.p.): 18.8 g | Survival Range (L1210/0 leukemia; 400 mkd × 5 i.p.): 9 to 11 days | Mean ± SD survival (L1210/0 leukemia; 400 mkd × 5 i.p.): 9.9 ± 0.2 days | Median survival (L1210/0 leukemia; 400 mkd × 5 i.p.): 10 days | % ILS (increase in life span) (L1210/0 leukemia; 400 mkd × 5 i.p., p < 0.01): 48% | Mean Animal Weight (on the day of death) (L1210/0 leukemia; 500 mkd × 5 i.p.): 17.3 g | Survival Range (L1210/0 leukemia; 500 mkd × 5 i.p.): 10 to 11 days | Mean ± SD survival (L1210/0 leukemia; 500 mkd × 5 i.p.): 10.4 ± 0.2 days | Median survival (L1210/0 leukemia; 500 mkd × 5 i.p.): 10 days | % ILS (increase in life span) (L1210/0 leukemia; 500 mkd × 5 i.p., p < 0.01): 55% | Mean Animal Weight (on the day of death) (L1210/0 leukemia; 600 mkd × 5 i.p.): 16.8 g | Survival Range (L1210/0 leukemia; 600 mkd × 5 i.p.): 7 to 11 days | Mean ± SD survival (L1210/0 leukemia; 600 mkd × 5 i.p.): 9.4 ± 0.8 days | Median survival (L1210/0 leukemia; 600 mkd × 5 i.p.): 10 days | % ILS (increase in life span) (L1210/0 leukemia; 600 mkd × 5 i.p., p < 0.5): 40% | Mean Animal Weight (on the day of death) (L1210/0 leukemia; 700 mkd × 5 i.p.): 16.6 g | Survival Range (L1210/0 leukemia; 700 mkd × 5 i.p.): 4 to 7 days | % ILS (increase in life span) (L1210/0 leukemia; 700 mkd × 5 i.p., N.S.): -10% | Mean ± SD survival (L1210/0 leukemia; 700 mkd × 5 i.p.): 6.0 ± 0.6 days | Median survival (L1210/0 leukemia; 700 mkd × 5 i.p.): 7 days | % ILS (increase in life span) (L1210/0 leukemia; 800 mkd × 5 i.p.): -70% | Mean Animal Weight (on the day of death) (L1210/0 leukemia; 800 mkd × 5 i.p.): 19.5 g | Survival Range (L1210/0 leukemia; 800 mkd × 5 i.p.): 2-2 days | Mean ± SD survival (L1210/0 leukemia; 800 mkd × 5 i.p.): 2.0 ± 0 days | Median survival (L1210/0 leukemia; 800 mkd × 5 i.p.): 2 days | dose of maximal therapeutic efficacy (L1210/0 leukemia; 5 day i.p. schedule, 1 dose per day days 1-5): 500 mg/kg/day | mortality due to drug toxicity (L1210/0 leukemia; i.p. days 1-5, 800 mkd): eventual mortality due to drug toxicity | host toxicity (L1210/0 leukemia; i.p. days 1-5, above 500 mkd, evidenced by increased weight loss): increased host toxicity
